Calls of active or inactive are those of the source. The calls are words filed in the database; no cut-off is given here.
Key:
U-87 MG [1] = experiment: Antiproliferative activity against human U-87 MG cells harboring wildtype IDH1 assessed as inhibition of cell growth incubated for 24 hrs by CCK8 assay; type: functional, cell-based, U-87MG ATCC
U-87 MG [2] = experiment: cells; settings: Homo sapiens, 48 h, read-out: Activity
U-87 MG [3] = experiment: Synergistic antiproliferative activity against human U-87 MG cells harboring wildtype IDH1 assessed as combination index incubated for 48 hrs in presence of FK866 by CCK8 assay; type: functional, U-87MG ATCC
U-87 MG [4] = experiment: Antiproliferative activity against human U-87 MG cells harboring wildtype IDH1 assessed as inhibition of cell growth incubated for 48 hrs by CCK8 assay; type: functional, cell-based, U-87MG ATCC
U-87MG ATCC [5] = type: functional, cell-based; settings: Homo sapiens, dose 0.5 µM, time 48.0 hrs
U-87 MG [6] = type: functional, cell-based, U-87MG ATCC; settings: Homo sapiens, 72 h
U-87 MG [7] = type: functional, cell-based, U-87MG ATCC; settings: Homo sapiens, 48 h
U-87 MG [8] = type: functional, organism-based; settings: Homo sapiens; U-87MG ATCC; dose 300.0 mg/kg, route po, time 35.0 day
U-87MG ATCC [9] = experiment: Effect on intracellular NADP+ level in human U-87 MG cells harboring wildtype IDH1; type: functional, cell-based
U-87 MG [10] = type: functional, cell-based, U-87MG ATCC; settings: Homo sapiens, 48 h; remark: listed apart in the source
U-87 MG [11] = type: functional, cell-based, U-87MG ATCC; settings: Homo sapiens, 24 h
U-87 MG [12] = type: functional, Homo sapiens, U-87MG ATCC; settings: dose 300 mg/kg; route po; time 35 day
U-87 MG [13] = experiment: Synergistic antiproliferative activity against human U-87 MG cells harboring wildtype IDH1 assessed as inhibition of cell growth incubated for 48 hrs in presence of FK866 by CCK8 assay; type: functional, cell-based, U-87MG ATCC
U-87 MG [14] = experiment: Antiproliferative activity against human U-87 MG cells harboring wildtype IDH1 assessed as inhibition of cell growth incubated for 72 hrs by CCK8 assay; type: functional, cell-based, U-87MG ATCC
U-87 MG [15] = type: functional, Homo sapiens, U-87MG ATCC; settings: dose 300 mg/kg; route po; time 35 day; remark: listed apart in the source
U-87 MG [16] = type: functional, Homo sapiens, U-87MG ATCC; settings: time 48 hrs
U-87 MG [17] = type: functional, organism-based; settings: Homo sapiens; U-87MG ATCC; dose 30.0 mg/kg, route ip, time 35.0 day
U-87 MG [18] = experiment: Synergistic antiproliferative activity against human U-87 MG cells harboring wildtype IDH1 assessed as inhibition of cell growth incubated for 48 hrs in presence of AG-120 by CCK8 assay; type: functional, cell-based, U-87MG ATCC
U-87 MG [19] = experiment: Synergistic antiproliferative activity against human U-87 MG cells harboring wildtype IDH1 assessed as inhibition of cell growth incubated for 48 hrs in presence of IDH305 by CCK8 assay; type: functional, cell-based, U-87MG ATCC
U-87 MG [20] = experiment: cells; settings: Homo sapiens, 48 h, read-out: Activity; remark: listed apart in the source
U-87 MG [21] = type: functional, cell-based, U-87MG ATCC; settings: Homo sapiens, 48 h; remark: listed apart in the source
U-87 MG [22] = type: functional, cell-based, U-87MG ATCC; settings: Homo sapiens, 48 h; remark: listed apart in the source

Row | SMILES | IC50 (U-87 MG [1]) | viability at 1 µM (U-87 MG [2]) | IC50 (U-87 MG [4]) | Activity (U-87MG ATCC [5]) | IC50 (U-87 MG [6]) | Activity (U-87MG ATCC [9]) | IC50 (U-87 MG [10]) | IC50 (U-87 MG [11]) | IC50 (U-87 MG [14]) | other results
1 | Cc1cc([C@H](C)Nc2nccc(N3C(=O)OC[C@@H]3[C@H](C)F)n2)ncc1-c1ccnc(C(F)(F)F)c1 | 20100 nM | 34.7% | 7570 nM | inactive | 360 nM | inactive | 440 nM | 1040 nM | 3540 nM | CI (U-87 MG [3]): 0.83; IC50 (U-87 MG [7]): 450 nM; Activity (U-87 MG [8]): Active; MST (U-87 MG [12]): 26.5 days; IC50 (U-87 MG [13]): 1690 nM; MST (U-87 MG [15]): 23.5 days; CI (U-87 MG [16]): 0.91
2 | O=C(/C=C/c1cccnc1)NCCCCC1CCN(C(=O)c2ccccc2)CC1 [DAPORINAD] | 5460 nM | 40.8% | 2550 nM | inactive | 410 nM | inactive | 970 nM | 1040 nM | 1630 nM | Activity (U-87 MG [17]): Active; IC50 (U-87 MG [18]): 2510 nM; IC50 (U-87 MG [19]): 1690 nM; viability at 1 µM (U-87 MG [20]): 27.8%; IC50 (U-87 MG [21]): 450 nM; IC50 (U-87 MG [22]): 560 nM
